Molecules are shown by their SMILES. Like-named read-outs stand apart in the source and are kept apart here.

One data set deals with T1, Human recombinant IL-4I1 (Homo sapiens, UniProt Q96RQ9).
T1 construct: purchased RD Systems 5684-AO-020
Kind of data set: IL4I1 inhibition assay. The format is biochemical. On the procedure:
Human recombinant IL-4I1 was purchased from RD Systems (Ref. 5684-AO-020). The biochemical activity was measured by its ability to oxidize phenylalanine (specific substrate for IL-4I1; Sigma, P2126) and liberate H2O2 was measured in a coupled horseradish peroxidase assay using Amplex Red reagent as a substrate, as described in the KDM1A assay. The IL4I1 assay buffer was 50 mM Sodium Phosphate pH 7.0. Inhibition of IL-4I1 was monitored during 30 min in the presence of KM phenylalanine peptide at the KMapp of IL-4I1.

Another data set addresses T2, MAO-A (Mus musculus, UniProt Q64133).
T2 construct: from tissue; host or cells: mouse brain (homogenate ex vivo; living animal in the L-5-HTP test)
T2 sequence (Q64133 1-526): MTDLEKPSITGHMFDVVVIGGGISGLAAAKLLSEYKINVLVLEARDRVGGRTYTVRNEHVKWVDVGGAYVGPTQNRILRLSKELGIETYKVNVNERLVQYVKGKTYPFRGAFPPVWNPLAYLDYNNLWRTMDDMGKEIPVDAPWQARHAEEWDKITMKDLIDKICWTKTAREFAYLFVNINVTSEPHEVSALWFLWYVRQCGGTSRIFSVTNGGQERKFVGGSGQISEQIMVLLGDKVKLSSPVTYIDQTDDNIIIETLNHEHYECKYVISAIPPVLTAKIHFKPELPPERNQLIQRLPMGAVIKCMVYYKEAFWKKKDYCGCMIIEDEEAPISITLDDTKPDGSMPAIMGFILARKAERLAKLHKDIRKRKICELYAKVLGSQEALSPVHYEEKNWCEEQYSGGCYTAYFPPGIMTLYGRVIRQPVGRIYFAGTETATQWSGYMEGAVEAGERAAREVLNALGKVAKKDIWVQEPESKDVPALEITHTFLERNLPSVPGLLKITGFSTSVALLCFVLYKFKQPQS
Kind of data set: L-5-HTP-induced symptoms test. As to conditions: mouse; p.o. gavage, followed by 100 mg/kg L-5-HTP i.p.; read-out: ED50 potentiation of L-5-HTP-induced symptoms. The format is in vivo, CD1 mice. On the procedure:
Male C57BL/6 mice (8 weeks of age, 25-30 g) procured from Harlan Interfauna Iberica were housed in the same condition that in MAO-B PEA section. This test was performed essentially as previously described. Test compound was administered p.o. at several dose levels to groups of mice (N = 10/dose) 60 min before an i.p. injection of L-5-HTP (100 mg/kg). This dose of 5-L-HTP produced no effects in control animals. […] Studies were performed in accordance with the institutional guidelines for the care and use of laboratory animals (European Communities Council Directive 86/609/EEC) established by the Ethical Committee for Animal Experimentation at the PRAAL-PCB.
This test was performed essentially as previously described [90](Koe et al., 1983). Test compound was administered p.o. at several dose levels 60 min before an i.p. injection of L-5-HTP. […] One score assigned to each symptom observed per animal, giving a maximal obtainable score of 30 per group of 10 mice.
Behavior was rated as outline above.

The next data set concerns platelet (PLT) levels. Briefly: Rat pharmacodynamics: hematology, 5 day treatment and recovery. The text has this:
KDM1A is involved in hematopoiesis, and it is well known that KDM1A knockdown or KDM1A inhibitors can halt hematopoiesis when administered at sufficiently high doses and during sufficient time^(39). […] Data from N = 6 rats are represented as mean ± SEM.
Male Wistar rats (N = 3 or 6 per dose level) of 10-12 weeks of age were maintained in air and temperature controlled cages with regular supply of water and food. A maximum of […] were raised. Before first administration, the animals were marked on the tail for identification. […] Animal of each treatment group were sampled for blood on days 1, 3, 5, 8, 10, 12, 15, 17 and 19. Blood samples of days 1, 3 and 5 were obtained just one hr after the compound administration. Blood samples were obtained from leg saphenous vein using recipients treated with EDTA to avoid coagulation. The last day of the study, rats were euthanized under CO2 saturated atmosphere and blood was extracted by cardiac puncture and collected in recipients containing EDTA.
Blood samples obtained from leg saphenous vein or cardiac puncture were analyzed on a Diatron hematology analyzer at SEA (Plataforma Recerca Aplicada Animal de Laboratori, Parc Científic de Barcelona).
Hematology parameters were calculated as mean ± SEM and represented as a timecourse.

Data set [1] deals with adenylyl cyclase (activator effect). Kind of data set: CEREP Diversity Panel. Set-up: dose or concentration left out as unconfirmed. The format is biochemical. On the procedure:
(§1) […]. MAO-A inhibition at 10 μM was 37%, in line with internal data.

The test system of data set [2] is COMT (catechol- O-methyl transferase). Briefly: CEREP Diversity Panel. The format is biochemical. Set-up: dose or concentration left out as unconfirmed. On the procedure: as §1
For the next data set, the system named is ATPase (Na+/K+). Briefly: CEREP Diversity Panel. In kind it is biochemical. Set-up: dose or concentration left out as unconfirmed. How it is done:
as §1

A further data set has as its target KDM1A (Homo sapiens, UniProt O60341). Briefly: KDM1A inhibition assay (Amplex Red, dimethylH3K4 peptide). The format is biochemical. Set-up: purchased BPS Bioscience 50100.

T1 sequence (Q96RQ9 22-567): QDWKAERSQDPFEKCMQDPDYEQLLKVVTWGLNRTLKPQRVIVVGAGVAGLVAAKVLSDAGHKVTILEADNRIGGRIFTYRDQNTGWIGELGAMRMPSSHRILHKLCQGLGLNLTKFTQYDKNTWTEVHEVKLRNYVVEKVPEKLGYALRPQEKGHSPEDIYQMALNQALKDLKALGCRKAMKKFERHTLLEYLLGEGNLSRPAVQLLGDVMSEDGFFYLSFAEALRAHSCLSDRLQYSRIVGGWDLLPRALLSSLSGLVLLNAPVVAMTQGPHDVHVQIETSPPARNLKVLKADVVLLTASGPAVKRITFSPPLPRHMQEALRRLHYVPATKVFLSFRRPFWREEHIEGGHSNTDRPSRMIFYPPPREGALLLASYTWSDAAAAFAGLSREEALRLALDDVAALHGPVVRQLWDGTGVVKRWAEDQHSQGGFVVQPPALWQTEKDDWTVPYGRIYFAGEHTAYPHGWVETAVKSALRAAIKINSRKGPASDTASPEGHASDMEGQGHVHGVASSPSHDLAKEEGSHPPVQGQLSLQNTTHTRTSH

As to `Nc1nnc(CN[C@@H]2C[C@H]2c2ccc(OCc3ccccc3)cc2)o1` [ORY-2001, vafidemstat], the inhibition at 10 µM on Human recombinant IL-4I1 amounted to 29%. Moreover, the ED50 at MAO-A worked out at 20.5 mg/kg. In addition, in the data set with platelet (PLT) levels (hematopoietic impact), the “dose limiting toxicity in 5 day MTD studies” value is “reversible and dose dependent impact on platelets”. In addition, the “maximum PLT rebound” value in the data set on platelet (PLT) levels (rats, 5 day treatment, 14 day recuperation) is roughly 12 days. Also, the “EC50 of PLT reduction” value with platelet (PLT) levels (rats, p.o. gavage, 5 day treatment) was ~ 0.5 mg/kg. Further, the figures for the “% inhibition” value (in data set [1]; in data set [2]; in the data set on ATPase (Na+/K+)) were 0%, 11% and 4%, respectively. The IC50 at KDM1A (mean IC50 KDM1A, mean ± SD, minimum 2 independent experiments) is 101 ± 40 nM; on KDM1A (rKDM1A, N = 1, n = 2, read-out: IC50 KDM1A, representative dose-response curve) it was 105 nM.

Usually inhibition stands for the share of the control response that was lost under treatment. A word on the ED50: it is the midpoint of the dose-response relation. For orientation: % inhibition means the relative decrease from the control value, in per cent. What is called IC50 is the concentration at which inhibition is half-maximal.

The values are drawn from publication PMC7259601 (PLoS ONE, 2020).
